Where a name gives a salt, the structure may show the parent alone.
test system: platelet aggregation in human platelet rich plasma (PRP); assay: Platelet Aggregation Assay (platelet rich plasma, with or without esterase pretreatment); assay type: cell-based; conditions: Platelet, preincubated with 100 IU/mL porcine liver esterase 2 hours at 37° C., 100 μM ADP, read-out: Platelet Aggregation Assay IC50 (with esterase)
Summary of the method: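 Human citrated PRP from drug-free donors, PPP as 100% transmittance blank; compounds added at various concentrations before agonist (ADP, collagen, arachidonate, epinephrine or thrombin), aggregation followed by light transmittance. Ester prodrugs pretreated (10^-3 M F.C.) with 100 IU/mL porcine liver esterase, 2 h 37 °C; 8 min 37 °C preincubation, then 100 μM ADP, 5 min; % inhibition vs control, IC50.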

SMILES | IC50
COC(=O)C(CNC(=O)CC1CC(c2ccc(C(=N)N)cc2)=NO1)NC(=O)Nc1ccc(F)cc1 (centres unmarked) [Example 518] | < 10 µM
COC(=O)C(CNC(=O)CC1CC(c2ccc(C(=N)N)cc2)=NO1)NC(=O)Nc1cccc2ccccc12 (centres unmarked) [Example 519] | < 10 µM
COC(=O)C(CNC(=O)CC1CC(c2ccc(C(=N)N)cc2)=NO1)NC(=O)NCc1ccccc1 (centres unmarked) [Example 520] | < 10 µM
CCc1ccc(C(=O)NC(CNC(=O)CC2CC(c3ccc(C(=N)N)cc3)=NO2)C(=O)OC)cc1 (centres unmarked) [Example 522] | < 10 µM
COC(=O)C(CNC(=O)CC1CC(c2ccc(C(=N)N)cc2)=NO1)NC(=O)c1ccc(-c2ccccc2)cc1 (centres unmarked) [Example 523] | < 10 µM
COC(=O)C(CNC(=O)CC1CC(c2ccc(C(=N)N)cc2)=NO1)NC(=O)c1ccc2ccccc2c1 (centres unmarked) [Example 524] | < 10 µM
COC(=O)C(CNC(=O)CC1CC(c2ccc(C(=N)N)cc2)=NO1)NC(=O)OCc1ccccc1Cl (centres unmarked) [Example 525] | < 10 µM
COC(=O)C(CNC(=O)CC1CC(c2ccc(C(=N)N)cc2)=NO1)NC(=O)OCc1ccccc1Br (centres unmarked) [Example 527] | < 10 µM
CCCCCCOC(=O)NC(CNC(=O)CC1CC(c2ccc(C(=N)N)cc2)=NO1)C(=O)OC (centres unmarked) [Example 529] | < 10 µM
COC(=O)C(CNC(=O)CC1CC(c2ccc(C(=N)N)cc2)=NO1)NC(=O)OCC(C)C (centres unmarked) [Example 531] | < 10 µM
COC(=O)C(CNC(=O)CC1CC(c2ccc(C(=N)N)cc2)=NO1)NC(=O)OCCC1CC1 (centres unmarked) [Example 533] | < 10 µM
COC(=O)C(CNC(=O)CC1CC(c2ccc(C(=N)N)cc2)=NO1)NC(=O)OCCC1CCCC1 (centres unmarked) [Example 535] | < 10 µM
COC(=O)C(CNC(=O)CC1CC(c2ccc(C(=N)N)cc2)=NO1)NC(=O)OCCCC(F)(F)F (centres unmarked) [Example 537] | < 10 µM
Cc1ccccc1C(=O)N[C@@H](CNC(=O)CC1CC(c2ccc(C(=N)N)cc2)=NO1)C(=O)O (stereo partly drawn) [Example 540, N^2-methylphenylcarbonyl-N^3-[3-(4-amidinophenyl)isoxazolin-5-(R,S)-ylacetyl]-(S)-2,3-diaminopropionicacid] | < 10 µM
COC(=O)C(CNC(=O)CC1CC(c2ccc(C(=N)N)cc2)=NO1)NS(=O)(=O)c1cc(C)c(Cl)cc1C (centres unmarked) [Example 541] | < 10 µM
COC(=O)C(CNC(=O)CC1CC(c2ccc(C(=N)N)cc2)=NO1)NS(=O)(=O)c1cccc(Cl)c1Cl (centres unmarked) [Example 542] | < 10 µM
COC(=O)C(CNC(=O)CC1CC(c2ccc(C(=N)N)cc2)=NO1)NS(=O)(=O)c1ccccc1Br (centres unmarked) [Example 543] | < 10 µM
COC(=O)C(CNC(=O)CC1CC(c2ccc(C(=N)N)cc2)=NO1)NS(=O)(=O)c1cccc(Br)c1 (centres unmarked) [Example 544] | < 10 µM
COC(=O)C(CNC(=O)CC1CC(c2ccc(C(=N)N)cc2)=NO1)NS(=O)(=O)c1ccc(Br)cc1 (centres unmarked) [Example 545] | < 10 µM

SMILES | IC50
COC(=O)C(CNC(=O)CC1CC(c2ccc(C(=N)N)cc2)=NO1)NS(=O)(=O)c1ccc(-c2ccccc2)cc1 (centres unmarked) [Example 546] | < 10 µM
COC(=O)C(CNC(=O)CC1CC(c2ccc(C(=N)N)cc2)=NO1)NS(=O)(=O)c1c(C)nn(C)c1Cl (centres unmarked) [Example 547] | < 10 µM
COC(=O)C(CNC(=O)CC1CC(c2ccc(C(=N)N)cc2)=NO1)NS(=O)(=O)c1sccc1Br (centres unmarked) [Example 548] | < 10 µM
COC(=O)C(CNC(=O)CC1CC(c2ccc(C(=N)N)cc2)=NO1)NS(=O)(=O)c1ccc(Br)s1 (centres unmarked) [Example 549] | < 10 µM
COC(=O)C(CNC(=O)CC1CC(c2ccc(C(=N)N)cc2)=NO1)NS(=O)(=O)c1ccc(-c2cc(C(F)(F)F)n(C)n2)s1 (centres unmarked) [Example 550] | < 10 µM
COC(=O)C(CNC(=O)CC1CC(c2ccc(C(=N)N)cc2)=NO1)NS(=O)(=O)c1ccc(-c2ccon2)s1 (centres unmarked) [Example 551] | < 10 µM
COC(=O)C(CNC(=O)CC1CC(c2ccc(C(=N)N)cc2)=NO1)NS(=O)(=O)c1ccc(-c2ccccn2)s1 (centres unmarked) [Example 552] | < 10 µM
COC(=O)C(CNC(=O)CC1CC(c2ccc(C(=N)N)cc2)=NO1)NS(=O)(=O)c1sc(NC(C)=O)nc1C (centres unmarked) [Example 553] | < 10 µM
COC(=O)C(CNC(=O)CC1CC(c2ccc(C(=N)N)cc2)=NO1)NS(=O)(=O)c1cc2ccccc2s1 (centres unmarked) [Example 555] | < 10 µM
COC(=O)C(CNC(=O)CC1CC(c2ccc(C(=N)N)cc2)=NO1)NS(=O)(=O)c1sc2ccccc2c1C (centres unmarked) [Example 556] | < 10 µM
CCCCOC(=O)N[C@@H](CNC(=O)CC1CC(c2ccc(NC(=N)N)cc2)=NO1)C(=O)OC (stereo partly drawn) [Example 602, Methyl N^2-n-butyloxycarbonyl-N^3-[3-(4-guanidinophenyl)isoxazolin-5-(R,S)-ylacetyl]-(S)-2,3-diaminopropionate, trifluoroacetic acid salt] | < 10 µM
COC(=O)CC(CNS(=O)(=O)N(C)C)NC(=O)CC1CC(c2ccc(C(=N)N)cc2)=NO1 (centres unmarked) [Example 611] | < 10 µM
COC(=O)CC(CN1CCCC1)NC(=O)CC1CC(c2ccc(C(=N)N)cc2)=NO1 (centres unmarked) [Example 612] | < 10 µM
CCCCOC(=O)NC(CNC(=O)CC1CC(c2ccc(C(=N)N)cc2F)=NO1)C(=O)OC (centres unmarked) [Example 613] | < 10 µM
Cn1cnc(S(=O)(=O)NC(CNC(=O)CC2CC(c3ccc(C(=N)N)cc3)=NO2)C(=O)O)c1 (centres unmarked) [Example 643] | < 10 µM
Cc1nc(C)c(S(=O)(=O)NC(CNC(=O)CC2CC(c3ccc(C(=N)N)cc3)=NO2)C(=O)O)s1 (centres unmarked) [Example 644] | < 10 µM
COC(=O)[C@H](CN(C)C(=O)CC1CC(c2ccc(C(=N)N)cc2)=NO1)NC(=O)OCc1ccccc1 (stereo partly drawn) [Example 651, Methyl N^2-benzyloxycarbonyl-N^3-methyl-N^3-[3-(4-amidinophenyl)isoxazolin-5-(R,S)-ylacetyl]-(S)-2,3-diaminopropionate, trifluoroacetic acid salt] | < 10 µM
COC(=O)C(CNC(=O)Cc1cc(-c2ccc(C(=N)N)cc2)no1)NC(=O)OCc1ccccc1 (centres unmarked) [Example 727] | < 10 µM
CCCCOC(=O)NC(CNC(=O)Cc1cc(-c2ccc(C(=N)N)cc2)no1)C(=O)OC (centres unmarked) [Example 729] | < 10 µM

same assay, conditions: Platelet, without esterase, read-out: Platelet Aggregation Assay IC50 (without esterase)

SMILES | IC50
N=C(N)c1ccc(C2=NOC(CC(=O)NCC(NC(=O)OCc3ccccc3Cl)C(=O)O)C2)cc1 (centres unmarked) [Example 526] | < 10 µM
N=C(N)c1ccc(C2=NOC(CC(=O)NCC(NC(=O)OCc3ccccc3Br)C(=O)O)C2)cc1 (centres unmarked) [Example 528] | < 10 µM
CCCCCCOC(=O)NC(CNC(=O)CC1CC(c2ccc(C(=N)N)cc2)=NO1)C(=O)O (centres unmarked) [Example 530] | < 10 µM
CC(C)COC(=O)NC(CNC(=O)CC1CC(c2ccc(C(=N)N)cc2)=NO1)C(=O)O (centres unmarked) [Example 532] | < 10 µM
N=C(N)c1ccc(C2=NOC(CC(=O)NCC(NC(=O)OCCC3CC3)C(=O)O)C2)cc1 (centres unmarked) [Example 534] | < 10 µM
N=C(N)c1ccc(C2=NOC(CC(=O)NCC(NC(=O)OCCCC(F)(F)F)C(=O)O)C2)cc1 (centres unmarked) [Example 538] | < 10 µM
Cc1cccc(S(=O)(=O)N[C@@H](CNC(=O)CC2CC(c3ccc(C(=N)N)cc3)=NO2)C(=O)O)c1 (stereo partly drawn) [Example 587A, N^2-3-methylphenylsulfonyl-N^3-[3-(4-amidinophenyl)isoxazolin-5S-ylacetyl]-S-2,3-diaminopropionic acid] | < 10 µM
CCCCOC(=O)NC(CNC(=O)CC1CC(CCCC2CCNCC2)=NO1)C(=O)OC (centres unmarked) [Example 616] | < 10 µM

same assay, conditions: preincubated with 100 IU/mL porcine liver esterase 2 hours at 37° C., 100 μM ADP, read-out: Platelet Aggregation Assay IC50 (with esterase)

SMILES | IC50
CCCS(=O)(=O)NC(CNC(=O)CC1CC(c2ccc(C(=N)N)cc2)=NO1)C(=O)OC (centres unmarked) [Example 539] | < 10 µM
